Source: the NIST ThermoML archive (doi:10.1016/j.jct.2012.11.032)

Assay: xn = mol fraction of the nth substance listed
Conditions: 101 kPa, Liquid; for speed of sound: Sing-around technique in a fixed-path interferometer; for mass density: Vibrating tube method

CCCCCCCCCCn1cc[n+](C)c1.[Cl-] [1-decyl-3-methylimidazolium chloride] + O
Conditions | mass density [kg/m3] | speed of sound [m/s]
283 K, x1 = 0.000105 | 999.733 | 1449.9
283 K, x1 = 0.000185 | 999.76 | 1451.1
283 K, x1 = 0.000277 | 999.776 | 1452.4
283 K, x1 = 0.000377 | 999.82 | 1453.9
283 K, x1 = 0.000452 | 999.839 | 1454.6
283 K, x1 = 0.000546 | 999.878 | 1455.8
283 K, x1 = 0.000728 | 999.945 | 1458.5
283 K, x1 = 0.000836 | 999.997 | 1460.3
283 K, x1 = 0.001002 | 1000.05 | 1462.6
283 K, x1 = 0.001099 | 1000.05 | 1463.7
283 K, x1 = 0.00118 | 1000.1 | 1464.7
283 K, x1 = 0.001259 | 1000.11 | 1465
283 K, x1 = 0.001351 | 1000.13 | 1465.9
283 K, x1 = 0.001452 | 1000.14 | 1466.5
283 K, x1 = 0.001539 | 1000.14 | 1467.1
283 K, x1 = 0.001631 | 1000.14 | 1467.9
283 K, x1 = 0.001869 | 1000.13 | 1468.9
283 K, x1 = 0.001988 | 1000.13 | 1469.3
288 K, x1 = 0.000105 | 999.142 | 1467.8
288 K, x1 = 0.000185 | 999.164 | 1468.9
288 K, x1 = 0.000277 | 999.176 | 1470.2
288 K, x1 = 0.000377 | 999.206 | 1471.5
288 K, x1 = 0.000452 | 999.216 | 1472.4
288 K, x1 = 0.000546 | 999.247 | 1473.5
288 K, x1 = 0.000728 | 999.3 | 1476
288 K, x1 = 0.000836 | 999.347 | 1477.5
288 K, x1 = 0.001002 | 999.38 | 1479.5
288 K, x1 = 0.001099 | 999.375 | 1480.5
288 K, x1 = 0.00118 | 999.412 | 1481.3
288 K, x1 = 0.001259 | 999.417 | 1481.7
288 K, x1 = 0.001351 | 999.423 | 1482.5
288 K, x1 = 0.001452 | 999.42 | 1483
288 K, x1 = 0.001539 | 999.421 | 1483.4
288 K, x1 = 0.001631 | 999.412 | 1483.9
288 K, x1 = 0.001869 | 999.393 | 1484.8
288 K, x1 = 0.001988 | 999.38 | 1485.2
293 K, x1 = 0.000105 | 998.25 | 1483.9
293 K, x1 = 0.000185 | 998.269 | 1484.9
293 K, x1 = 0.000277 | 998.279 | 1486
293 K, x1 = 0.000377 | 998.297 | 1487.2
293 K, x1 = 0.000452 | 998.301 | 1488.1
293 K, x1 = 0.000546 | 998.325 | 1489.2
293 K, x1 = 0.000728 | 998.361 | 1491.4
293 K, x1 = 0.000836 | 998.402 | 1492.8
293 K, x1 = 0.001002 | 998.424 | 1494.6
293 K, x1 = 0.001099 | 998.408 | 1495.4
293 K, x1 = 0.00118 | 998.437 | 1496.1
293 K, x1 = 0.001259 | 998.436 | 1496.5
293 K, x1 = 0.001351 | 998.434 | 1497.1
293 K, x1 = 0.001452 | 998.423 | 1497.6
293 K, x1 = 0.001539 | 998.415 | 1497.9
293 K, x1 = 0.001631 | 998.403 | 1498.3
293 K, x1 = 0.001869 | 998.372 | 1499
293 K, x1 = 0.001988 | 998.354 | 1499.4
298 K, x1 = 0.000105 | 997.096 | 1498
298 K, x1 = 0.000185 | 997.108 | 1498.9
298 K, x1 = 0.000277 | 997.114 | 1500
298 K, x1 = 0.000377 | 997.124 | 1501.1
298 K, x1 = 0.000452 | 997.122 | 1501.8
298 K, x1 = 0.000546 | 997.141 | 1502.8
298 K, x1 = 0.000728 | 997.166 | 1504.9
298 K, x1 = 0.000836 | 997.199 | 1506.1
298 K, x1 = 0.001002 | 997.205 | 1507.7
298 K, x1 = 0.001099 | 997.182 | 1508.4
298 K, x1 = 0.00118 | 997.205 | 1509
298 K, x1 = 0.001259 | 997.199 | 1509.4
298 K, x1 = 0.001351 | 997.192 | 1509.9
298 K, x1 = 0.001452 | 997.175 | 1510.3
298 K, x1 = 0.001539 | 997.164 | 1510.6
298 K, x1 = 0.001631 | 997.146 | 1510.9
298 K, x1 = 0.001869 | 997.078 | 1511.5
298 K, x1 = 0.001988 | 997.079 | 1511.8
303 K, x1 = 0.000105 | 995.704 | 1510.3
303 K, x1 = 0.000185 | 995.706 | 1511.1
303 K, x1 = 0.000277 | 995.707 | 1512.1
303 K, x1 = 0.000377 | 995.711 | 1513.1
303 K, x1 = 0.000452 | 995.705 | 1513.8
303 K, x1 = 0.000546 | 995.718 | 1514.7
303 K, x1 = 0.000728 | 995.732 | 1516.6
303 K, x1 = 0.000836 | 995.759 | 1517.7
303 K, x1 = 0.001002 | 995.75 | 1519.2
303 K, x1 = 0.001099 | 995.72 | 1519.7
303 K, x1 = 0.00118 | 995.739 | 1520.3
303 K, x1 = 0.001259 | 995.728 | 1520.6
303 K, x1 = 0.001351 | 995.715 | 1521
303 K, x1 = 0.001452 | 995.694 | 1521.5
303 K, x1 = 0.001539 | 995.683 | 1521.6
303 K, x1 = 0.001631 | 995.659 | 1521.9
303 K, x1 = 0.001869 | 995.549 | 1522.4
303 K, x1 = 0.001988 | 995.574 | 1522.6
308 K, x1 = 0.000105 | 994.091 | 1520.9
308 K, x1 = 0.000185 | 994.084 | 1521.6
308 K, x1 = 0.000277 | 994.08 | 1522.5
308 K, x1 = 0.000377 | 994.079 | 1523.4
308 K, x1 = 0.000452 | 994.068 | 1524.1
308 K, x1 = 0.000546 | 994.074 | 1524.9
308 K, x1 = 0.000728 | 994.082 | 1526.7
308 K, x1 = 0.000836 | 994.1 | 1527.7
308 K, x1 = 0.001002 | 994.083 | 1528.9
308 K, x1 = 0.001099 | 994.044 | 1529.4
308 K, x1 = 0.00118 | 994.057 | 1529.9
308 K, x1 = 0.001259 | 994.044 | 1530.2
308 K, x1 = 0.001351 | 994.028 | 1530.5
308 K, x1 = 0.001452 | 994.006 | 1531
308 K, x1 = 0.001539 | 993.985 | 1531.1
308 K, x1 = 0.001631 | 993.962 | 1531.3
308 K, x1 = 0.001869 | 993.807 | 1531.7
308 K, x1 = 0.001988 | 993.859 | 1531.9
313 K, x1 = 0.000105 | 992.269 | 1529.9
313 K, x1 = 0.000185 | 992.257 | 1530.5
313 K, x1 = 0.000277 | 992.252 | 1531.4
313 K, x1 = 0.000377 | 992.242 | 1532.2
313 K, x1 = 0.000452 | 992.229 | 1532.8
313 K, x1 = 0.000546 | 992.227 | 1533.5
313 K, x1 = 0.000728 | 992.229 | 1535.1
313 K, x1 = 0.000836 | 992.239 | 1536
313 K, x1 = 0.001002 | 992.214 | 1537.2
313 K, x1 = 0.001099 | 992.17 | 1537.6
313 K, x1 = 0.00118 | 992.176 | 1538
313 K, x1 = 0.001259 | 992.167 | 1538.3
313 K, x1 = 0.001351 | 992.142 | 1538.6
313 K, x1 = 0.001452 | 992.118 | 1539
313 K, x1 = 0.001539 | 992.095 | 1539
313 K, x1 = 0.001631 | 992.066 | 1539.2
313 K, x1 = 0.001869 | 991.864 | 1539.5
313 K, x1 = 0.001988 | 991.947 | 1539.7
